Results reported in patent US20030181527A1, “Novel formulations of alpha-2,4-disulfophenyl-n-tert-butylnitrone” (priority 2000, published 2003).
Entries after “also recorded” stand apart in the source; their conditions may differ.

Experiments:
[1] = Stability with air or nitrogen filled headspaces (Table 5); type: physicochemical; conditions: 400 mg/ml, pH 8.5; nitrogen-filled headspace, fill 7.7 ml; +25° C./60% RH; 12 months
Method: A 400 mg/ml concentrate of α-(2,4-disulfophenyl)-N-tert-butylnitrone disodium salt was prepared by adding α-(2,4-disulfophenyl)-N-tert-butylnitrone disodium salt (1500 g) to water for injection (2200 ml) containing dissolved disodium hydrogen phosphate dihydrate (3.51 g). The solution was then adjusted to pH 8.5 by the addition of 2M sodium hydroxide solution and then water for injection was added to give a final volume of 3750 ml. After preparation, the solution was purged with nitrogen for 90 minutes and then placed in 10 ml glass vials with a fill volume of 7.7 ml. Before stoppering the vials, the headspace was purged with nitrogen. […] The vials were stored either at +5° C. at ambient humidity or at +25° C. and 60% relative humidity.
A second batch of 400 mg/ml concentrate of α-(2,4-disulfophenyl)-N-tert-butylnitrone disodium salt buffered with 50 mM phosphate buffer was treated identically except that the headspace was filled with air not nitrogen and the fill volume was 10.5 ml.

[2] = Photodegradation of aqueous solutions under indoor light; type: physicochemical; conditions: 400 mg/ml aqueous concentrate, room temperature, 8 hours, disodium salt
[3] = Stability of 100 mg/ml aqueous solution with added factors (chelating agent, antioxidant, oxygen removal, pH); type: physicochemical
Method: The effects of several added factors were investigated in experiments designed using a multivariate technique. An aqueous solution of α-(2,4-disulfophenyl)-N-tert-butylnitrone disodium salt (100 mg/ml) containing less than 0.3% 2,4-disulphobenzaldehyde disodium salt (II) was placed in sealed 10 ml glass vials with a fill volume of 10 ml. The concentrations of the degradation products and particularly of 2,4-disulphobenzaldehyde disodium salt (II) were measured by a chromatographic method after accelerated storage conditions at +40° C. and 75% relative humidity for two months.
Values are mean±standard deviation. n indicates the number of independent experiments. A t-test was performed to evaluate the significance of the different factors.

A. niger = assay: Antimicrobial efficacy (European Pharmacopoeia 2000, Chapter 5.1.3); type: cell-based
Method: (§1) The antimicrobial efficacy was tested for three different solutions:
(§2) i) α-(2,4-disulfophenyl)-N-tert-butylnitrone disodium salt, 10 mg/ml;
(§3) ii) α-(2,4-disulfophenyl)-N-tert-butylnitrone disodium salt, 400 mg/ml; and
(§4) iii) a carbonate buffer control.
(§5) The tests were performed according to European Pharmacopoeia 2000, Chapter 5.1.3, pages 259 to 260. Seven 10 ml vials were inoculated, one per test organism. During the tests, the vials were stored at controlled room temperature and protected from light. At different time intervals, samples were withdrawn and after appropriate dilutions the numbers of viable microorganisms (colony forming units per ml, CFU/ml) were determined using standard plate count procedures.

C. albicans = assay: as above; type: cell-based
Method: as §1, §2, §3, §4, §5

For `CC(C)(C)[N+]([O-])=Cc1ccc(S(=O)(=O)[O-])cc1S(=O)(=O)[O-].[Na+].[Na+]` [α-(2,4-disulfophenyl)-N-tert-butylnitrone disodium salt], the “Amount of Aldehyde (II)” value [1] was 0.5 area %, the Photodegradation [2] was “no photodegradation; also recorded: no degradation at all” and the “Initial content of 2,4-disulphobenzaldehyde disodium salt (II)” value ([3]; 100 mg/ml aqueous solution, before storage) was “less than 0.3%”. The “Final Amount of Aldehyde (II)” value ([3]; 100 mg/ml, added EDTA, pH 7.0 to 8.8, 2 months +40° C./75% RH) was 2.27 ± 0.12 area %, the “Final Amount of Aldehyde (II)” value ([3]; 100 mg/ml, added ascorbate, pH 7.0 to 7.3, 2 months +40° C./75% RH) was 1.32 ± 0.11 (p < 0.001) area % and the “Final Amount of Aldehyde (II)” value ([3]; 100 mg/ml, added factor none, pH 7.0 to 8.2, 2 months +40° C./75% RH) was 2.20 ± 0.11 area %. The “Final Amount of Aldehyde (II)” value ([3]; 100 mg/ml, nitrogen purge, pH 7.0 to 8.6, 2 months +40° C./75% RH) was 1.34 ± 0.18 (p < 0.001) area %, the “Effect of pH on the degree of decomposition” value ([3]; pH 7 to 9, 100 mg/ml, 2 months +40° C./75% RH) was “no significant effect” and the “Number of CFUs per ml - Time after Inoculation” value (from here on “Number of CFUs per ml - Time”) (A. niger; 10 mg/ml, 6 h) was 4.5 × 10^4 CFUs per ml. For the same compound, the “Number of CFUs per ml - Time” value (A. niger; 10 mg/ml, 24 h) was 5.0 × 10^4 CFUs per ml, the “Number of CFUs per ml - Time” value (A. niger; 10 mg/ml, 48 h) was 5.5 × 10^4 CFUs per ml and the “Number of CFUs per ml - Time” value (A. niger; 10 mg/ml, 7 days) was 3.0 × 10^4 CFUs per ml. The “Number of CFUs per ml - Time” value (A. niger; 10 mg/ml, 14 days) was 1.0 × 10^3 CFUs per ml, the “Number of CFUs per ml - Time” value (A. niger; 10 mg/ml, 21 days) was 1.0 × 10^2 CFUs per ml and the “Number of CFUs per ml - Time” value (A. niger; 10 mg/ml, 28 days) was “≦10 CFUs per ml”. The “Number of CFUs per ml - Time” value (A. niger; 10 mg/ml, <1 min) was 5.0 × 10^4 CFUs per ml, the “Number of CFUs per ml - Time” value (A. niger; 400 mg/ml, 6 h) was 5.9 × 10^4 CFUs per ml and the “Number of CFUs per ml - Time” value (A. niger; 400 mg/ml, 24 h) was 3.4 × 10^4 CFUs per ml. For the same compound, the “Number of CFUs per ml - Time” value (A. niger; 400 mg/ml, 48 h) was 1.7 × 10^4 CFUs per ml, the “Number of CFUs per ml - Time” value (A. niger; 400 mg/ml, 7 days) was 1.9 × 10^2 CFUs per ml and the “Number of CFUs per ml - Time” value (A. niger; 400 mg/ml, 14 days) was <1 CFUs per ml. For the same compound, the “Number of CFUs per ml - Time” value (A. niger; 400 mg/ml, 21 days) was <1 CFUs per ml, the “Number of CFUs per ml - Time” value (A. niger; 400 mg/ml, 28 days) was <1 CFUs per ml and the “Number of CFUs per ml - Time” value (A. niger; 400 mg/ml, <1 min) was 1.0 × 10^5 CFUs per ml. For the same compound, the “Number of CFUs per ml - Time” value (C. albicans; 10 mg/ml, 6 h) was 7.0 × 10^5 CFUs per ml, the “Number of CFUs per ml - Time” value (C. albicans; 10 mg/ml, 24 h) was 6.5 × 10^5 CFUs per ml and the “Number of CFUs per ml - Time” value (C. albicans; 10 mg/ml, 48 h) was 6.5 × 10^5 CFUs per ml. For the same compound, the “Number of CFUs per ml - Time” value (C. albicans; 10 mg/ml, 7 days) was <10 CFUs per ml, the “Number of CFUs per ml - Time” value (C. albicans; 10 mg/ml, 14 days) was <1 CFUs per ml and the “Number of CFUs per ml - Time” value (C. albicans; 10 mg/ml, 21 days) was <1 CFUs per ml. The “Number of CFUs per ml - Time” value (C. albicans; 10 mg/ml, 28 days) was <1 CFUs per ml, the “Number of CFUs per ml - Time” value (C. albicans; 10 mg/ml, <1 min) was 6.5 × 10^5 CFUs per ml and the “Number of CFUs per ml - Time” value (C. albicans; 400 mg/ml, 6 h) was 3.1 × 10^4 CFUs per ml. The “Number of CFUs per ml - Time” value (C. albicans; 400 mg/ml, 24 h) was 6.1 × 10^3 CFUs per ml, the “Number of CFUs per ml - Time” value (C. albicans; 400 mg/ml, 48 h) was <1 CFUs per ml and the “Number of CFUs per ml - Time” value (C. albicans; 400 mg/ml, 7 days) was <1 CFUs per ml. The “Number of CFUs per ml - Time” value (C. albicans; 400 mg/ml, 14 days) was <1 CFUs per ml, the “Number of CFUs per ml - Time” value (C. albicans; 400 mg/ml, 21 days) was <1 CFUs per ml and the “Number of CFUs per ml - Time” value (C. albicans; 400 mg/ml, 28 days) was <1 CFUs per ml. For the same compound, the “Number of CFUs per ml - Time” value (C. albicans; 400 mg/ml, <1 min) was 1.6 × 10^5 CFUs per ml.
